The values that follow come from patent publication US9000176B2, “Pyrazole derivatives, preparation method thereof, and composition for prevention and treatment of osteoporosis containing same” (Ewha University—Industry Collaboration Foundation, priority 2009, dated 2015).

Structures are written as SMILES.

This experiment deals with generation of reactive oxygen species in the murine kidney membrane. Nature of the experiment: Lucigenin-based assay of reactive oxygen species generation in isolated kidney membrane. The class given is biochemical, rat (Rattus norvegicus). Particulars: 37° C. for 10 minutes, luminescence, compound 40, 10, 2.5, 0.625, 0 μM, read-out: EC50 (inhibition of generation of reactive oxygen species). The procedure:
A kidney was isolated from a rat (Rattus norvegicus) and washed with phosphate buffered saline (PBS). The tissue was soaked in 20 mL of PBS buffer containing a protease inhibitor (Aprotinin 1 μg/mL-USB 11388, Leupeptin 1 μg/mL-USB-18413), finely disrupted using a mixer, and then transferred to a 50 mL conical tube (SPL 50050), followed by centrifugation at 10000 g for 10 minutes (MF-600 plus, Hanil) to sediment the undisrupted tissue. The supernatant was separated and collected in a fresh tube. The tube was placed in ice and subjected to sonication about 4 times each cycle for 30 seconds until the supernatant became clear (Branson Digital Sonifier, Model CE Converter 102C). The supernatant was transferred to a high-speed centrifugation tube (Beckman 331372) and then centrifuged at 100000 g for 1 hour (Optima™ L-90 K Preparative Ultracentrifuge, SW41Ti rotor, Beckman). After the supernatant was discarded, the remaining pellet was washed once with cold PBS and dissolved in 500 μL of cold PBS containing a protease inhibitor to obtain a murine kidney membrane.
Reactive oxygen species generated in the thus-obtained kidney membrane was analyzed by a lucigenin-based assay.
Specifically, each of the compounds synthesized in Examples of the present invention (40 μM, 10 μM, 2.5 μM, 0.625 μM, and 0 μM) was placed in a luminescence assay microplate, and the isolated kidney membrane and lucigenin were sequentially added thereto, followed by incubation at 37° C. for 10 minutes. Then, the intensity of luminescence was measured in a luminometer (MicroLumatPlus LB96V Microplate Luminometer, Berthold) to assay the generation of reactive oxygen species in the murine kidney membrane, followed by calculating an EC50 value of the inventive compounds.
Consider `Oc1cc(-c2ccc(-c3ccccc3Oc3ccccc3)cc2)nn1-c1ccccn1` [Compound 74, 3-(2′-phenoxybiphenyl-4-yl)-1-(pyridin-2-yl)-1H-pyrazol-5-ol], for which the EC50 is 400 nM.
Then `Oc1cc(-c2ccc(-c3ccc4c(c3)OCO4)cc2)nn1-c1ccccn1` [Compound 55, 3-(4-(benzo[d][1,3]-dioxol-5-yl)phenyl)-1-(pyridin-2-yl)-1H-pyrazol-5-ol], with 500 nM.
For `CC(C)[Si](Oc1cc(-c2ccc(I)cc2)nn1-c1ccccn1)(C(C)C)C(C)C` [Compound 20, 2-(3-(4-iodophenyl)-5-(triisoropylsilyloxy)-1H-pyrazol-1-yl)pyridine] the value was 1500 nM.
For `Oc1cc(-c2ccc(-c3ccc(Br)cc3)cc2)nn1-c1ccccn1` [Compound 72, 3-(4′-bromobiphenyl-4-yl)-1-(pyridin-2-yl)-1H-pyrazol-5-ol] the value was 2500 nM; for `CC(=O)Oc1cc(-c2ccc(Br)cc2)nn1-c1ccccn1` [Compound 26, 3-(4-bromophenyl)-1-(pyridin-2-yl)-1H-pyrazol-5-yl acetate], 1300 nM; for `Oc1cc(-c2cccc(-c3ccccc3Oc3ccccc3)c2)nn1-c1ccccn1` [Compound 65, 3-(2′-phenoxybiphenyl-3-yl)-1-(pyridin-2-yl)-1H-pyrazol-5-ol], 625 nM.
Turning to `Oc1cc(-c2ccc(I)cc2)nn1-c1ncccn1` [Compound 19, 3-(4-iodophenyl)-1-(pyrimidin-2-yl)-1H-pyrazol-5-ol], the EC50 is 800 nM.
Then `Oc1cc(-c2ccccc2I)nn1-c1ccccn1` [Compound 16, 3-(2-iodophenyl)-1-(pyridin-2-yl)-1H-pyrazol-5-ol], with 2500 nM; and `Oc1cc(-c2cccc(-c3cccc(-c4ccccc4)c3)c2)nn1-c1ccccn1` [Compound 67, 3-(3′-phenylbiphenyl-3-yl)-1-(pyridin-2-yl)-1H-pyrazol-5-ol], with 400 nM; and `Oc1cc(-c2ccc(I)cc2)nn1-c1ccccn1` [Compound 18, 3-(4-iodophenyl)-1-(pyridin-2-yl)-1H-pyrazol-5-ol], with 450 nM.
Then `Oc1cc(-c2cccc(I)c2)nn1-c1ccccn1` [Compound 17, 3-(3-iodophenyl)-1-(pyridin-2-yl)-1H-pyrazol-5-ol], with 700 nM; and `Oc1cc(-c2ccccc2-c2ccc3c(c2)OCO3)nn1-c1ccccn1` [Compound 59, 3-(2-(benzo[d][1,3]dioxol-5-yl)phenyl)-1-(pyridin-2-yl)-1H-pyrazol-5-ol], with 1400 nM; and `CCCc1c(-c2ccccc2)nn(-c2ccccn2)c1O` [Compound 78, 3-phenyl-4-propyl-1-(pyridin-2-yl)-1H-pyrazol-5-ol], with 10000 nM.
For `CC(C)[Si](Oc1cc(-c2ccc(-c3ccc(Br)cc3)cc2)nn1-c1ccccn1)(C(C)C)C(C)C` [Compound 51, 2-(3-(4′-bromobiphenyl-4-yl)-5-(triisopropylsilyloxy)-1H-pyrazol-1-yl)pyridine], the EC50 was determined as 400 nM.
`Oc1cc(-c2ccc(-c3ccccc3)cc2)nn1-c1ccccn1` [Compound 54, 3-(biphenyl-4-yl)-1-(pyridin-2-yl)-1H-pyrazol-5-ol]: the EC50 came to 400 nM.
On to `Oc1cc(-c2ccc(-c3ccccc3)cc2)nn1-c1ncccn1` [Compound 75, 3-(biphenyl-4-yl)-1-(pyrimidin-2-yl)-1H-pyrazol-5-ol], for which the EC50 was 600 nM.
For `CC(C)(C)OC(=O)Oc1cc(-c2ccc(-c3ccccc3)cc2)nn1-c1ncccn1` [Compound 48, 3-(biphenyl-4-yl)-1-(pyrimidin-2-yl)-1H-pyrazol-5-yl tert-butyl carbonate] the value was 1200 nM.
Then `Oc1c(Cc2ccccc2)c(-c2ccccc2)nn1-c1ccccn1` [Compound 79, 4-benzyl-3-phenyl-1-(pyridin-2-yl)-1H-pyrazol-5-ol], with 3000 nM.
Then `c1ccc(B(Oc2cc(-c3ccc(-c4ccccc4)cc3)nn2-c2ccccn2)c2ccccc2)cc1` [Compound 52, 2-(3-(biphenyl-4-yl)-5-(diphenylboryloxy)-1H-pyrazol-1-yl)pyridine], with 500 nM; and `Oc1cc(-c2cccc(-c3ccccc3)c2)nn1-c1ccccn1` [Compound 61], with 400 nM.
On to `Oc1cc(-c2ccc(Br)cc2)nn1-c1ccccn1` [Compound 15, 3-(4-bromophenyl)-1-(pyridin-2-yl)-1H-pyrazol-5-ol], for which the EC50 came to 1200 nM.
